{
  "source": "paper PMC9398908",
  "about": "“GLP-1-mediated delivery of tesaglitazar improves obesity and glucose metabolism in male mice” (Nature Metabolism, 2022)",
  "key": {"[1]": {"tested_on": "C57BL/6J DIO mice", "experiment": "Chronic high-dose treatment of DIO mice (14 days, 50 nmol/kg/day): body weight, food intake, fat and lean mass (Fig. 2a–d)", "assay_type": "in vivo, mouse", "conditions": "individual mice", "from_the_text": "Glp1r^−/− mice were kindly provided by D. Drucker (University of Toronto, Canada). All wildtype and knockout mice used in our studies were in-house bred on a C57BL/6J background. […] At the beginning of each experiment, mice were equally distributed into experimental groups according to their body weight and body composition. All animal studies were approved by the State of Bavaria, Germany, or the Insitutional Animal Care and Use Committee of the University of Cincinnati, OH, USA and conducted on the basis of the underlying animal welfare law of the respective countries. Compounds were dissolved in PBS and were s.c. administered with a volume of 5 μl g^−1 body weight in the indicated doses between 15:00 and 16:00.\nFat and lean tissue mass were measured via nuclear magnetic resonance technology (EchoMRI)."}, "[2]": {"target": "T1, PPARγ2/RXR (Homo sapiens, UniProt P37231)", "T1 construct": "host or cells: HEK293T, with (A8) or without (A9) co-expressed hGLP-1R", "T1 sequence (P37231 1-505)": "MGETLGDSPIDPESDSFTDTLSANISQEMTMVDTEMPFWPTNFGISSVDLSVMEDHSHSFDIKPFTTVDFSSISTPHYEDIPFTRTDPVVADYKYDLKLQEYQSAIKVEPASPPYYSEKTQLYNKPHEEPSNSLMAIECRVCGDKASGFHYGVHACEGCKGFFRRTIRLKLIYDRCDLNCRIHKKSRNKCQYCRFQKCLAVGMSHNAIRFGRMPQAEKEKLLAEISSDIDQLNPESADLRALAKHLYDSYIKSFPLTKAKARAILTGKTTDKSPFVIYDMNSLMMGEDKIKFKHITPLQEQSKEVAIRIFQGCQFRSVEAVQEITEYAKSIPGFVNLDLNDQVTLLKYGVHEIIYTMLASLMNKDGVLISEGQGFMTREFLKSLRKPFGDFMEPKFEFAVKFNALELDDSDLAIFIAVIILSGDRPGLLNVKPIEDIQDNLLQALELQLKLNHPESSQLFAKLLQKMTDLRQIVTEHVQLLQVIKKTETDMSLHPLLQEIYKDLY", "T1 sequence (P19793 1-462 partner)": "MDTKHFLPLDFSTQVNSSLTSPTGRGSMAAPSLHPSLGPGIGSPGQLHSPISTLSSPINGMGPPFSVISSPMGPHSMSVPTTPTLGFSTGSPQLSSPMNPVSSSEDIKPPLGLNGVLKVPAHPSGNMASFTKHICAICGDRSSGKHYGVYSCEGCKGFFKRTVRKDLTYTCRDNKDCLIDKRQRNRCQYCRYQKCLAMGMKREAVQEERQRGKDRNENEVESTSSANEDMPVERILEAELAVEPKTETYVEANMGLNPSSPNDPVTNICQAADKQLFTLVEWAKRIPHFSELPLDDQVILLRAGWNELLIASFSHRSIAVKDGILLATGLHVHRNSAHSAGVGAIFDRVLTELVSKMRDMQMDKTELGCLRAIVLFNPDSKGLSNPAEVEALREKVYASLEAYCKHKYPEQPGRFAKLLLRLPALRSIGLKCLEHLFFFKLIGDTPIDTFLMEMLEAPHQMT", "experiment": "RXR-Rluc8 / PPARγ2-YFP heterodimerization (BRET) in hGLP-1R(−) HEK293T cells", "assay_type": "cell-based", "conditions": "GLP-1R (-), 1μM", "method": "HEK293T cells (700,000 per well) were seeded in six-well plates and incubated to 70% confluency in DMEM (10% FBS, 1% Pen/Strep). Twenty-four hours following seeding, transient transfections were performed using Lipofectamine 2000 (catalogue no. 11668019, Invitrogen) according to the manufacturer’s protocol without including additional transformation carrier DNA.\nTwenty-four hours following transfection, HEK293T cells or MIN6 cells were washed with PBS and resuspended in FluoroBrite phenol red-free complete media (catalogue no. A1896701, Life Technologies) containing 5% FBS and 2 mM of L-glutamine (catalogue no. 25030081, Life Technologies). 100,000 cells per well were plated into poly-D-lysine-coated (catalogue no. P6403, Sigma-Aldrich) 96-well white polystyrene LumiNunc plates (catalogue no. 10072151, Thermo Fisher Scientific). After 24 h, the media was replaced with PBS (catalogue no. 10010056, Gibco) containing 10 μM of coelenterazine-h (catalogue no. S2011, Promega) or 1:500 dilution of NanoGlo (catalogue no. N1110, Promega). BRET measurements were taken every 30 s–2 min using a PHERAstar FS multi-mode microplate reader. Baseline measurements were taken after an initial 5 min of incubation with coelenterazine-h or NanoGlo-containing PBS after which cells were then treated with either vehicle (PBS) or respective ligands. The resulting ligand-specific ratiometric BRET signals were normalized to vehicle producing the ‘ligand-induced BRET ratio’[37], followed by an additional normalization step to well-specific baseline readings. Ligand-induced measurements on the temporal scale is represented as the subsequent measurement after time point zero. Positive or negative incremental AUC (+iAUC/−iAUC) were calculated where noted. Each experiment was independently performed at least three times, each with at least three technical replicates for each group.\nUntagged hGLP-1R was purchased from Sino Biological Inc. (catalogue no. HG13944-UT), hGLP-1R-GFP was a kind gift from D. Hodson (University of Birmingham), and hGLP-1R-Rluc8 was a kind gift from P. Sexton (Monash University, Melbourne, Australia). Gαs recruitment to the GLP-1R-GFP was quantified using mini-Gαs, a protein probe that translocates to ligand-bound Gαs-coupled G-protein coupled receptors. NES-Nluc-MiniGαs was a gift from K. Pfleger (Harry Perkins Institute of Medical Research, Nedlands, Western Australia, Australia). Intracellular cAMP was measured using the YFP-Epac-Rluc CAMYEL sensor[39]. hGLP-1R-RLUC8 internalization was quantified using the intracellular plasma membrane marker Venus-KRAS[40]. […] GLP-1R-Rluc8 lysosomal colocalization was measured using Lamp1-mNeonGreen. […] Time-dependent RXR/PPARγ heterodimerization was measured using RXR-Rluc8 and PPARγ2-YFP, both of which were kind gifts from V. Ollendorf[41]."}},
  "note": "Where “and” joins values, the source holds several entries; their conditions need not be identical. Equal values may be shown once.",
  "data": [
    {"smiles": "CCO[C@@H](Cc1ccc(OCCc2ccc(OS(C)(=O)=O)cc2)cc1)C(=O)O", "note": "[tesaglitazar, (S)-2-ethoxy-3-(4-(4-((methylsulfonyl)oxy)phenethoxy)phenyl) propanoic acid]", "values": [
      {"measurement": "delta Fat mass (%)", "setting": "[1]; Figure 2c, sheet notes an outlier based on grubbs test", "value": "-21.91% and -19.00% and -17.53% and -14.42% and -13.51% and -9.80% and -21.20% and -17.11%"},
      {"measurement": "delta lean mass (%)", "setting": "[1]; Figure 2d", "value": "-3.73% and -4.62% and -4.21% and -6.43% and -3.83% and -4.53% and -3.02% and -3.39%"},
      {"measurement": "RXR/PPARγ Heterodimerization (AUC), +iAUC", "setting": "[2]; replicate 1", "value": 59.69},
      {"measurement": "RXR/PPARγ Heterodimerization (AUC), +iAUC", "setting": "[2]; replicate 2", "value": 107.20},
      {"measurement": "RXR/PPARγ Heterodimerization (AUC), +iAUC", "setting": "[2]; replicate 3", "value": 71.87},
      {"measurement": "RXR/PPARγ Heterodimerization (AUC), +iAUC", "setting": "[2]; replicate 4", "value": 114.00}
    ]}
  ]
}
